# Experimental data: patent US20050287192A1, “Wound bandage comprising a non-enzymatic antioxidant” (priority 2002, published 2005)
# “Also recorded” adds a separate entry of the source.
# Tests used:
# Assay type in all cases: cell-based, human
# [1] = test system: leukocytes; assay: stress activation of leukocytes in contact with cotton wool compresses, release of reactive oxygen by luminol-enhanced chemiluminescence; conditions: cotton wool compress with physiological saline solution with glutathione, final concentration 0.05 mM, vs untreated compress; FIG. 3
# Procedure: First of all leukocytes were isolated from human veinous blood and the cells were then left in contact with cotton wool compresses and stress activation of the cells was measured as the release of reactive oxygen with luminol-enhanced chemiluminiscense.
# From FIG. 1 it is apparent that the leukocytes are activated on contact with cotton wool compresses.
# The cellulose is then reduced again with cyanoborohydride.
# [2] = test system: leukocytes; assay: lipid peroxidation of leukocyte cell membranes measured with fluorescent probe DPPP; conditions: contact between leukocytes and treated cotton wool compress, DPPP fluorescence; FIG. 5
# Procedure: Lipid peroxidation of cell membranes during the contact between leukocytes and cotton wool compresses was measured with a fluorescent probe, diphenyl-1-pyrenylphosphine (DPPP), which reacts with membrane peroxides and forms a fluorescent oxide, see Okimoto, Watanabe, et al., 2000 FEBS Letter, vol 474, pages 137-140.
# [3] = test system: leukocytes; assay: ability of leukocytes to kill bacteria in presence of additives in solution (CFU count); conditions: additive 10 mM in solution; leukocytes 1×10^5 cells/ml and Staphylococcus aureus 1×10^6 cells/ml, 37° C., two hours; FIG. 6
# Procedure: The ability of leukocytes to kill bacteria in the presence of glutathione (10 mM) or N-acetylcysteine (10 mM) in solution was studied in the following manner: Leukocytes (1×10^5 cells/ml) and Staphylococcus aureus (1×10^6 cells/ml) were incubated together at 37° C. for two hours. The leukocytes were killed and the remaining bacteria were allowed to grow on a blood agar plate for 24 hours, after which the number of bacterial colonies (CFU) was calculated. Control samples without leukocytes were done in parallel with all the tests. A small number of colonies means that the leukocytes have good ability to kill bacteria.
# [4] = test system: leukocytes; assay: ability of leukocytes to be activated by zymosan after contact with cotton wool compresses; conditions: after contact with cotton wool compress with additive; FIG. 4
# Procedure: The ability of the leukocytes to react against a microbial agent after contact with the cotton wool compresses was then tested by addition of zymosan, a fungal spore used to test the ability of the leukocytes to kill microbes.
structure (smiles),measurement,setting,value
N[C@@H](CCC(=O)N[C@@H](CS)C(=O)NCC(=O)O)C(=O)O [glutathione],activation of leukocytes (release of reactive oxygen),[1],does not affect activation of the leukocytes; also recorded: somewhat increased quantity of reactive oxygen
same,lipid peroxidation of the cell membrane,[2],reduce the lipid peroxidation of the cell membrane
same,"ability of leukocytes to kill bacteria (number of bacterial colonies, CFU)",[3],kill the bacteria completely
same,ability of leukocytes to be activated by zymosan,[4],retain the ability to be activated by zymosan
CC(=O)N[C@@H](CS)C(=O)O [N-acetylcysteine],"ability of leukocytes to kill bacteria (number of bacterial colonies, CFU)",[3],kill the bacteria completely
